In series [1] the target is T1, human vasopressin V1a receptor subtype (Homo sapiens, UniProt P37288).
T1 construct: host or cells: CHO cells, stably transfected (pZeoSV vector for the Thibonnier cells); membranes
The series is described as follows: Vasopressin binding in CHO cell membranes expressing human vasopressin V1a subtype receptors ([3H]Manning ligand). The conditions noted are these: 100 nM, values without parentheses. From the text:
Vasopressin Binding in Chinese Hamster Ovary Cell Membranes Expressing Human Vasopressin V1a Subtype Receptors
Chinese hamster ovary cells (CHO cells) stably transfected with the human vasopressin V1a subtype receptors were either obtained from Biosignal Inc., 1744 rue Williams, Montreal, Quebec, Canada or obtained from M. Thibonnier, Case Western Reserve University School of Medicine, Cleveland, Ohio. A. Passaging and Amplification of Cells: CHO cells transfected with the human vasopressin V1a subtype receptors obtained from M. Thibonnier (pZeoSV vector) are allowed to grow to confluency (approx. >90%) in T-150 flasks under sterile conditions, in a cell culture medium of F-12 Nutrient Mixture (HAM) with L-glutamine (Gibco Cat. #11765-054) containing 15 mM HEPES (Gibco Cat. #15630-080), 1% antibiotic/antimycotic (add 5 mL 100×, Gibco Cat. #15240-062 per 500 mL F-12), 250 μg/mL Zeocin (add 1.25 mL of 100 mg/mL Invitrogen R-250-01 per 500 mL F-12) and 10% Fetal Bovine Serum (Qualified, heat inactivated, Gibco Cat. #16140-063). The medium is removed by aspiration and the cells are washed with 10 mL of Hank's Balanced Salt solution (Gibco Cat. #14175-095). The salt solution is removed by aspiration and the cells are trypsinized with 5 mL of trypsin-EDTA (0.05% trypsin, 0.53 mM EDTA-4Na, Gibco Cat. #25300-070) for 1 min. The trypsin is removed by aspiration and the cells dislodged by tapping. Cell Culture medium (eg, 30 mL for 1:30 split) is immediately added and mixed well to inactivate trypsin. 1 mL of detached cells is added to new culture flasks containing fresh cell culture medium (eg, into 25 mL per T-150 flask), and mixed gently. The cells are incubated at 37° C. in 5% CO2. The medium is changed at 3 to 4 days interval (or as appropriate). The cells grow to confluency (approx. >75%–95%) within 7–8 days. All steps are done under sterile conditions. B. Membrane Preparation: The cells are washed twice gently with Hank's Balanced Salt solution (e.g.,. use 10 mL per T-150 flask). The excess is removed and the cells are bathed for 15–30 min. in an enzyme-free Cell Dissociation Buffer (e.g. use 8 mL Hank's Based, Gibco Cat. #13150-016 per T-150 flask) until the cells are loosened. The contents are transferred to centrifuge tubes (50 mL size) kept in ice bath. All subsequent steps are done at 4° C. The tubes are centrifuged at 300×g for 15 min (1380 rpm on SORVAL, Model RT6000D, using rotor for 50 mL tubes). The supernatant is discarded and the cells suspended in homogeneizing buffer (10 mM Tris-HCl containing 0.25 M sucrose and 1 mM EDTA, pH 7.4) ensuring that the volume of the buffer is about ten times the volume of the cell pellet. The cells are pooled into a centrifuge tube (50 mL) and homogenized with Polytron at setting 6 for 10 sec. The homogenate is transferred into a Potter-Elvjehm homogenizer and homogenized with 3 strokes. The homogenate is centrifuged at 1500×g for 10 min at 4° C. (3100 rpm using SORVAL, model RT6000D, using rotor for 50 mL tubes). The pellet is discarded. The supernatant is centrifuged at 100,000×g for 60 min. at 4° C. (Beckman L8-80M ultracentrifuge; spin at 37,500 rpm with rotor type 70 Ti for 50 mL tubes; 38,000 rpm with type 80Ti for 15 mL tubes; or 35,800 rpm with rotor type 45Ti). The supernantant is discarded and the pellet suspended in 3 to 4 mL of Tris buffer (50 mM TRIS-HCl, pH 7.4). The protein content is estimated by the Bradford or Lowry method. The volume of the membrane suspension is adjusted with the membrane buffer (50 mM Tris-HCl containing 0.1% BSA and 0.1 mM PMSF) to give 3.0 mg/mL (or as appropriate) of protein. The membranes are aliquoted and stored at −70° C. C. […]

T1 sequence (P37288 whole entry): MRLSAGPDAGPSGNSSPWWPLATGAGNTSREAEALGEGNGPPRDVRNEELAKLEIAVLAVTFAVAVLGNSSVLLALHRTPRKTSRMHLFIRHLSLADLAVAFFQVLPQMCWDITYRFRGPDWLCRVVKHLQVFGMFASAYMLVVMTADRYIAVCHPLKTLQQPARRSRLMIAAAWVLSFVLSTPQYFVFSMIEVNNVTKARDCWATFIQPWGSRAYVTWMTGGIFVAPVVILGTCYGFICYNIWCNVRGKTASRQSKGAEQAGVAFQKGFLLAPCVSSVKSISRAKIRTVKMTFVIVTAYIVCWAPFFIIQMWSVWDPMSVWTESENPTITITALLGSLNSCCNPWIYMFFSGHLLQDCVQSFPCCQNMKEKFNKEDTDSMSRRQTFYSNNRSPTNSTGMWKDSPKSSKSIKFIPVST

Turning to `Cc1cc(C(=O)N2Cc3cccn3Cc3ccccc32)ccc1C1=CCCCC1C(C)(C)C` (centres unmarked) [Example 34, (10,11-Dihydro-5H-pyrrolo[2,1-c][1,4]benzodiazepin-10-yl)-[4-(6-tert-butyl-cyclohex-1-en-1-yl)-3-methyl-phenyl]-methanone], the melting point – broadly, the temperature, or range, at which the solid turns liquid – is 127 to 129 °C. For the same molecule, the inhibition (usually the change of the read-out against control, counted positive when it falls) at 0.1 µM in series [1] was -5%.
Regarding `Cc1cc(C(=O)N2Cc3cccn3Cc3ccccc32)ccc1C1=CCC2CCC1C2` (centres unmarked) [Example 35, (10,11-Dihydro-5H-pyrrolo[2,1-c][1,4]benzodiazepin-10-yl)-(4-bicyclo[3.2.1]oct-2-en-2-yl-3-methyl-phenyl)-methanone], the melting point fell in the range of 168 to 169 °C. Besides, the inhibition at 0.1 µM in series [1] came to 36%.
In the same order, the values of `Cc1cc(C(=O)N2Cc3cccn3Cc3ccccc32)ccc1C1=CCC2CC1C2(C)C` (centres unmarked) [Example 36, (10,11-Dihydro-5H-pyrrolo[2,1-c][1,4]benzodiazepin-10-yl)-[4-(6,6-dimethyl-bicyclo[3.1.1]hept-2-en-2-yl)-3-methyl-phenyl]-methanone] are 187 °C and 11%.
For the molecule `Cc1cc(C(=O)N2Cc3cccn3Cc3ccccc32)ccc1C1=CC(C)(C)CC(C)(C)C1` [Example 37, (10,11-Dihydro-5H-pyrrolo[2,1-c][1,4]benzodiazepin-10-yl)-[3-methyl-4-(3,3,5,5-tetramethyl-cyclohex-1-en-1-yl)-phenyl]-methanone], the melting point turned out to be 158 °C. The inhibition at 0.1 µM in series [1] was 10%.
Molecule `COc1cccc(C2=C(c3ccc(C(=O)N4Cc5cccn5Cc5ccccc54)cc3C)CCCC2)c1` [Example 38, (10,11-Dihydro-5H-pyrrolo[2,1-c][1,4]benzodiazepin-10-yl)-{4-[2-(3-methoxy-phenyl)-cyclohex-1-en-1-yl]-3-methyl-phenyl}-methanone] displayed a melting point of 91 to 94 °C. For the same molecule, in series [1], the inhibition at 0.1 µM was 5%.
Regarding `Cc1cc(C(=O)N2Cc3cccn3Cc3ccccc32)ccc1C1=CC(=O)CCC1` [Example 39, 3-[4-(10,11-Dihydro-5H-pyrrolo[2,1-c][1,4]benzodiazepine-10-carbonyl)-2-methyl-phenyl]-cyclohex-2-en-1-one], the melting point fell in the range of 176 to 177 °C. The inhibition at 0.1 µM in series [1] amounted to 48%.
For `CO[C@@H]1CCCC(c2ccc(C(=O)N3Cc4cccn4Cc4ccccc43)cc2C)=C1C` [Example 44, 10-{4-[(3R)-3-Methoxy-2-methylcyclohex-1-en-1-yl]-3-methylbenzoyl}-10,11-dihydro-5H-pyrrolo[2,1-c][1,4]benzodiazepine], the melting point lay in the range of 127 to 128 °C. Moreover, the inhibition at 0.1 µM in series [1] worked out at 85%.

For the origin of these results see patent publication US7022699B2, “Cyclohexenyl phenyl diazepines vasopressin and oxytocin receptor modulators” (Wyeth, priority 2001, dated 2006).
